According to patent publication US4769373A, “Anti-arrhythmic azabicyclic compounds” (Richter Gedeon Vegyeszeti Gyar Rt., priority 1983, dated 1988):
Where a name gives a salt, the structure may show the parent alone.

Tests used:
[1] = system: disorders of the cardiac rhythm provoked by aconitine; assay: animal or person; conditions: for ED50: Rattus norvegicus, iv, read-out: ED50 (dose required to restore the rhythm in 50%), Wistar rats, i.v., aconitine-induced arrhythmia; for ED50 (dose required to restore the rhythm in 50%): i.v., aconitine-induced arrhythmia; for LD50/ED50 index: LD50 mice i.v. / ED50 rats i.v.; for index ratio (index of the test compound : index of Lidocaine): relative to Lidocaine = 1
Experimental: The anti-arrhytmic effect was tested in Wistar rats. The animals first received aconitine intravenously to provoke disorders of the cardiac rhythm [M. Fekete and J. Borsy: Med. Exp. Basel, 10, 93 (1964)] and then i.v. the test (or reference) compound. […] The dose required to restore the rhythm in 50% (ED50 mg/kg) was determined.

[2] = in vivo; conditions: mouse, iv, mice, i.v., read-out: LD50 (dose causing 50% mortality)
[3] = system: ischiadic nerve isolated from frog; assay: local anaesthetic activity on isolated ischiadic nerve; conditions: relative to Lidocaine
[4] = system: heart isolated from guinea pig; assay: electrophysiological parameters (conduction time, refractory period) of isolated heart; conditions: relative to quinidine
Description: The new compounds have no beta-receptor blocking effect. In a local anaesthetic mechanism of effect the compounds of the formula (I) influence certain electrophysiological parameters of the heart. E.g. increase in conduction time and refractory period were observed on heart isolated from guinea pig.

SMILES: CN1CC2CCC(N(C)C)C(C1)C2OC(=O)c1ccc(F)cc1 (stereo not drawn) [compound 1641, 6α-dimethylamino-3-methyl-9α-(4'-fluorobenzoyloxy)-3-azabicyclo[3.3.1]nonane dihydrochloride monohydrate]
- ED50 [1]: 0.55 mg/kg

SMILES: CN1CC2CCC(N(C)C)C(C1)C2OC(=O)c1ccccc1 (stereo not drawn) [compound 1528, 6α-dimethylamino-3-methyl-9α-benzoyloxy-3-azabicyclo[3.3.1]nonane dihydrochloride]
- ED50 (dose required to restore the rhythm in 50%) ([1]; Wistar rats, dihydrochloride): 0.68 mg/kg

SMILES: COc1cc(C(=O)OC2C3CCC(N(C)C)C2CN(C)C3)cc(OC)c1OC (stereo not drawn) [compound 1529, 6α-dimethylamino-3-methyl-9α(3',4',5'-trimethoxybenzoyloxy)-3-azabicyclo[3.3.1]nonane]
- LD50/ED50 index [1]: 234.0
- ED50 [1]: 0.15 mg/kg
- anti-arrhythmic effect, oral ([1]; Wistar rats, 20 mg/kg dose p.o.): prolonged anti-arrhythmic effect
- index ratio (index of the test compound : index of Lidocaine) [1]: 71.8
- LD50 [2]: 35.2 mg/kg

SMILES: CN1CC2CCC(N(C)C)C(C1)C2OC(=O)C1c2ccccc2Oc2ccccc21 (stereo not drawn) [compound 1547, 6α-dimethylamino-3-methyl-9β-(xanthen-9'-carbonyloxy)-3-azabicyclo[3.3.1]nonane]
- LD50/ED50 index [1]: 51.1
- ED50 (dose required to restore the rhythm in 50%) ([1]; Wistar rats): 0.71 mg/kg
- index ratio (index of the test compound : index of Lidocaine) [1]: 15.7
- LD50 [2]: 36.3 mg/kg

SMILES: CN1CC2CCC(N(C)C)C(C1)C2OC(=O)c1cccc(C(F)(F)F)c1 (stereo not drawn) [compound 1648, 6α-dimethylamino-3-methyl-9α-(3'-trifluoremethylbenzoyloxy)-3-azabicyclo[3.3.1]nonane dihydrochloride]
- ED50 [1]: 1 mg/kg

SMILES: CN1CC2CCC(N(C)C)C(C1)C2Oc1cccc(C(F)(F)F)c1 (stereo not drawn) [compound 1539, 6α-dimethylamino-3-methyl-9α-(3'-trifluoromethylphenoxy)-3-azabicyclo[3.3.1]nonane fumarate]
- LD50/ED50 index [1]: 256.0
- ED50 (dose required to restore the rhythm in 50%) ([1]; Wistar rats): 0.25 mg/kg
- index ratio (index of the test compound : index of Lidocaine) [1]: 78.5
- LD50 [2]: 64 mg/kg
- local anaesthetic activity compared with Lidocaine [3]: as active as the Lidocaine

SMILES: CN1CC2CCC(N(C)C)C(C1)C2OC(=O)c1ccccc1 (stereo not drawn) [compound 1541, 6α-dimethylamino-3-methyl-9β-benzoyloxy-3-azabicyclo[3.3.1]nonane dihydrochloride]
- ED50 (dose required to restore the rhythm in 50%) ([1]; Wistar rats, dihydrochloride): 3.5 mg/kg

SMILES: CN1CC2CCC(N(C)C)C(C1)C2OC(=O)c1ccc(Cl)c(Cl)c1 (stereo not drawn) [compound 1643, 6α-dimethylamino-3-methyl-9α-(3',4'-dichlorobenzoyloxy)-3-azabicyclo[3.3.1]nonane dihydrochloride]
- ED50 [1]: 1.2 mg/kg

SMILES: CN1CC2CCC(N(C)C)C(C1)C2OC(=O)c1ccc(Cl)cc1 (stereo not drawn) [compound 1658, 6β-dimethylamino-3-methyl-9α-(4'-chlorobenzoyloxy)-3-azabicyclo[3.3.1]nonane dihydrochloride]
- ED50 (dose required to restore the rhythm in 50%) ([1]; Wistar rats, dihydrochloride): 2.3 mg/kg

SMILES: CN1CC2CCC(N(C)C)C(C1)C2OC(=O)c1ccccc1Cl (stereo not drawn) [compound 1644, 6α-dimethylamino-3-methyl-9α-(2'-chlorobenzoyloxy)-3-azabicyclo[3.3.1]nonane dihydrochloride monohydrate]
- ED50 [1]: 1.4 mg/kg

SMILES: CN1CC2CCC(N(C)C)C(C1)C2Oc1ccc(Cl)c(Cl)c1 (stereo not drawn) [compound 1537, 6α-dimethylamino-3-methyl-9α-(3',4'-dichlorophenoxy)-3-azabicyclo[3.3.1]noname fumarate]
- ED50 [1]: 4 mg/kg

SMILES: CN1CC2CCC(N(C)C)C(C1)C2Oc1ccc(Cl)cc1 (stereo not drawn) [compound 1534, 6α-dimethylamino-3-methyl-9α-(4'-chlorophenoxy)-3-azabicyclo[3.3.1]nonane fumarate]
- ED50 [1]: 1.1 mg/kg

SMILES: CN1CC2CCC(N(C)C)C(C1)C2OC(=O)c1ccc(Cl)cc1 (stereo not drawn) [compound 1800, 6α-dimethylamino-3-methyl-9α-(4'-chlorobenzoyloxy)-3-azabicyclo[3.3.1]nonane dihydrochloride]
- ED50 (dose required to restore the rhythm in 50%) ([1]; Wistar rats, dihydrochloride): 0.75 mg/kg

SMILES: Cc1ccc(C(=O)OC2C3CCC(N(C)C)C2CN(C)C3)cc1 (stereo not drawn) [compound 1799, 6α-dimethylamino-3-methyl-9α-(4'-methylbenzoyloxy)-3-azabicyclo[3.3.1]nonane dihydrochloride]
- ED50 [1]: 1.1 mg/kg

SMILES: CN1CC2CCC(N(C)C)C(C1)C2OC(=O)c1cccs1 (stereo not drawn) [compound 1797, 6α-dimethylamino-3-methyl-9α-(2'-thenoyloxy)-3-azabicyclo[3.3.1]nonane]
- ED50 [1]: 0.45 mg/kg

SMILES: CN1CC2CCC(N(C)C)C(C1)C2OC(=O)c1cccc(F)c1 (stereo not drawn) [compound 1642, 6α-dimethylamino-3-methyl-9α-(3'-fluorobenzoyloxy)-3-azabicyclo[3.3.1]nonane dihydrochloride]
- ED50 [1]: 0.5 mg/kg

SMILES: Cc1ccc(OC2C3CCC(N(C)C)C2CN(C)C3)cc1 (stereo not drawn) [compound 1548, 6α-dimethylamino-3-methyl-9α-(4'-methylphenoxy)-3-azabicyclo[3.3.1]nonane fumarate]
- ED50 [1]: 2.5 mg/kg

SMILES: CN1CC2CCC(N(C)C)C(C1)C2Oc1cccc(Cl)c1 (stereo not drawn) [compound 1535, 6α-dimethylamino-3-methyl-9α-(3'-chlorophenoxy)-3-azabicyclo[3.3.1]nonane monohydrochloride]
- ED50 [1]: 2.5 mg/kg

SMILES: CN1CC2CCC(N(C)C)C(C1)C2OC(=O)c1cccc(Cl)c1 (stereo not drawn) [compound 1645, 6α-dimethylamino-3-methyl-9α-(3'-chlorobenzoyloxy)-3-azabicyclo[3.3.1]nonane dihydrochloride monohydrate]
- ED50 [1]: 1.2 mg/kg

SMILES: CN1CC2CCC(N(C)C)C(C1)C2OC(=O)c1ccccc1 (stereo not drawn) [compound 1542, 6β-dimethylamino-3-methyl-9α-benzoyloxy-3-azabicyclo[3.3.1]nonane]
- LD50/ED50 index [1]: 50.5
- ED50 (dose required to restore the rhythm in 50%) ([1]; Wistar rats): 0.43 mg/kg
- index ratio (index of the test compound : index of Lidocaine) [1]: 15.5
- LD50 [2]: 21.7 mg/kg
- local anaesthetic activity compared with Lidocaine [3]: four times more favorable effective than Lidocaine
- activity on electrophysiological parameters compared with quinidine [4]: about five times more active than the quinidine

SMILES: CN1CC2CCC(N(C)C)C(C1)C2OC(=O)C1c2ccccc2Oc2ccccc21 (stereo not drawn) [compound 1543, 6β-dimethylamino-3-methyl-9α-(xanthen-9'-carbonyloxy)-3-azabicyclo[3.3.1]nonane]
- ED50 (dose required to restore the rhythm in 50%) ([1]; Wistar rats): 0.6 mg/kg

SMILES: CN1CC2CCC(N(C)C)C(C1)C2OC(=O)C1c2ccccc2Oc2ccccc21 (stereo not drawn) [compound 1531, 6α-dimethylamino-3-methyl-9α-(xanthen-9-carbonyloxy)-3-azabicyclo[3.3.1]nonane dihydrochloride]
- ED50 [1]: 1 mg/kg

SMILES: CCN(CC)CC(=O)Nc1c(C)cccc1C [Lidocaine, reference compound]
- ED50 [1]: 7.7 mg/kg

SMILES: CN1CC2CCC(N(C)C)C(C1)C2Oc1ccccc1 (stereo not drawn) [compound 1544, 6β-dimethylamino-3-methyl-9α-phenoxy-3-azabicyclo-[3.3.1]nonane]
- ED50 (dose required to restore the rhythm in 50%) ([1]; Wistar rats): 1.4 mg/kg

SMILES: CN1CC2CCC(N(C)C)C(C1)C2OC(=O)c1ccc2ccccc2c1 (stereo not drawn) [compound 1840, 6β-dimethylamino-3-methyl-9α-(2'naphthoyloxy)-3-azabicyclo[3.3.1]nonane dihydrochloride]
- ED50 (dose required to restore the rhythm in 50%) ([1]; Wistar rats, dihydrochloride): 0.95 mg/kg

SMILES: CN1CC2CCC(N(C)C)C(C1)C2OC(=O)c1ccc2ccccc2c1 (stereo not drawn) [compound 1801, 6α-dimethylamino-3-methyl-9α-(2'-naphthoyloxy)-3-azabicyclo[3.3.1]nonane]
- ED50 [1]: 0.7 mg/kg

SMILES: CN1CC2CCC(N(C)C)C(C1)C2Oc1cccc(C(F)(F)F)c1 (stereo not drawn) [compound 1545, 6β-dimethylamino-3-methyl-9α-(3'-trifluoromethylphenoxy)-3-azabicyclo[3.3.1]nonane dihydrochloride]
- ED50 (dose required to restore the rhythm in 50%) ([1]; Wistar rats, dihydrochloride): 1.8 mg/kg

SMILES: CN1CC2CCC(N(C)C)C(C1)C2Oc1ccccc1Cl (stereo not drawn) [compound 1536, 6α-dimethylamino-3-methyl-9α-(2'-chlorophenoxy)-3-azabicyclo[3.3.1]nonane dihydrochloride]
- ED50 [1]: 1.8 mg/kg

SMILES: CN1CC2CCC(N(C)C)C(C1)C2OC(c1ccccc1)c1ccccc1 (stereo not drawn) [compound 1540, 6α-dimethylamino-3-methyl-9α-benzhydryloxy-3-azabiocyclo[3.3.1]nonane]
- ED50 [1]: 0.4 mg/kg

SMILES: CN1CC2CCC(N(C)C)C(C1)C2OC(=O)c1ccc(-c2ccccc2)cc1 (stereo not drawn) [compound 1530, 6α-dimethylamino-3-methyl-9α-(4'-phenylbenzoyloxy)-3-azabicyclo[3.3.1]nonane]
- ED50 [1]: 1.8 mg/kg

SMILES: CN1CC2CCC(N(C)C)C(C1)C2Oc1ccccc1 (stereo not drawn) [compound 1533, 6α-dimethylamino-3-methyl-9α-phenoxy-3-azabicyclo[3.3.1]nonane]
- ED50 [1]: 1.4 mg/kg
